Measured values published in ChEMBL document CHEMBL3297665, “Case Study of Small Molecules As Antimalarials: 2-Amino-1-phenylethanol (APE) Derivatives” (ACS Med Chem Lett, 2014).
Active and inactive are the calls of the source. The rule behind the calls is not given here.

Test system: Plasmodium falciparum
Test: Antiplasmodial activity against ring stage Plasmodium falciparum 3D7A infected in erythrocytes incubated for 24 hrs prior to [3H]hypoxanthine incorporation measured after 24 hrs
Assay type: functional, organism-based
Conditions: not given

SMILES	IC50
CCC(C)(C)N[C@@H](C)[C@@H](O)c1ccc(C(F)(F)F)cc1	1.4 µM
CCC(C)(C)N[C@@H](C)[C@@H](O)c1ccc(Cl)c(Cl)c1	0.5 µM
C[C@H](NC(C)(C)C)[C@@H](O)c1ccc(Cl)c(C(F)(F)F)c1	0.6 µM
CCC(C)(C)N[C@@H](C)[C@@H](O)c1ccc(C(F)(F)F)cc1 (racemic) [listing 1 of 2 here]	0.4 µM
CCC(C)(C)N[C@@H](C)[C@@H](O)c1ccc(Cl)c(Cl)c1 (racemic)	0.2 µM

Same assay, conditions: Plasmodium falciparum, 3D7A

SMILES	IC50
CCC(C)(C)N[C@H](C)[C@H](O)c1ccc(C(F)(F)F)cc1	0.5 µM
C[C@@H](NC(C)(C)C)[C@H](O)c1ccc(Cl)c(C(F)(F)F)c1	0.3 µM
CCC(C)(C)N[C@H](C)[C@H](O)c1ccc(Cl)c(Cl)c1	0.4 µM
CC(NC(C)(C)C)C(O)c1ccccc1 (racemic)	> 5 µM
C[C@H](NC(C)(C)C)[C@H](O)c1ccc(Cl)c(Cl)c1 (racemic)	> 5 µM
CC(C)(C)NCC(O)c1ccc(Cl)c(Cl)c1 (racemic)	> 5 µM
OC(CNCc1ccccc1)c1ccc(Cl)c(Cl)c1 (racemic)	0.7 µM
Cc1ccc2ccccc2c1CNCC(O)c1ccc(Cl)c(Cl)c1 (racemic)	> 5 µM
CCC(C)(C)N[C@@H](C)[C@H](O)c1ccc(C(F)(F)F)cc1 (racemic)	> 5 µM
CCC(C)(C)N[C@@H](C)[C@H](O)c1ccc(Cl)c(Cl)c1 (racemic)	3.9 µM
C[C@H](NC(C)(C)C)[C@@H](O)c1ccc(Cl)c(Cl)c1 (racemic)	0.9 µM
C[C@H](NC(C)(C)C)[C@@H](O)c1ccc(Cl)c(C(F)(F)F)c1 (racemic) [listing 1 of 2 here]	0.5 µM
OC(CNC1CCCCCCC1)c1ccc(Cl)c(Cl)c1 (racemic)	0.07 µM
OC(CNC1CCCCCC1)c1ccc(Cl)c(Cl)c1 (racemic)	0.16 µM
CC(NC(C)(C)C)C(O)c1ccc(Cl)c(C(F)(F)F)c1 (racemic)	4.3 µM
OC(CNC1CCCCC1)c1ccc(Cl)c(Cl)c1 (racemic)	0.72 µM
C[C@H](N)[C@@H](O)c1ccc(C(F)(F)F)cc1 (relative stereo)	> 5 µM
CCC(C)(C)N(C)[C@@H](C)[C@@H](O)c1ccc(C(F)(F)F)cc1 (relative stereo)	> 5 µM
C[C@H](Nc1ccccc1)[C@@H](O)c1ccc(C(F)(F)F)cc1 (relative stereo)	5 µM
C[C@H](NC1CCCCC1)[C@@H](O)c1ccc(C(F)(F)F)cc1 (relative stereo)	5 µM

Test system: not listed separately
Test: Inhibition of beta-hematin formation
Conditions: not given

SMILES	IC50
O[C@@H](c1cc(C(F)(F)F)nc2c(C(F)(F)F)cccc12)[C@H]1CCCCN1 (relative stereo) [(S,R)-MEFLOQUINE]	12.2 µM

Test system: not listed separately
Test: Inhibition of beta-hematin formation up to 100 uM
Conditions: not given

SMILES	inhibition
CCC(C)(C)N[C@@H](C)[C@@H](O)c1ccc(C(F)(F)F)cc1 (racemic) [listing 2 of 2 here]	inactive
C[C@H](NC(C)(C)C)[C@@H](O)c1ccc(Cl)c(C(F)(F)F)c1 (racemic) [listing 2 of 2 here]	inactive

Test system: Plasmodium berghei
Test: Antiplasmodial activity against Plasmodium berghei infected in po dosed mouse assessed as reduction in parasitemia administered qd for 2 days relative to vehicle-treated control
Assay type: functional
Conditions: not given

SMILES	inhibition (INH)
CCC(C)(C)N[C@@H](C)[C@@H](O)c1ccc(C(F)(F)F)cc1 (racemic) [listing 1 of 2 here]	64%
C[C@H](NC(C)(C)C)[C@@H](O)c1ccc(Cl)c(C(F)(F)F)c1 (racemic) [listing 1 of 2 here]	76%
